Reference: ChEMBL document CHEMBL1938230, “6-Position optimization of tricyclic 4-quinolone-based inhibitors of glycogen synthase kinase-3β: discovery of nitrile derivatives with picomolar potency” (Bioorg Med Chem Lett, 2012)

Columns and labels:
Type in all cases: cell-free
[1] = target: Serine/threonine-protein kinase ATR (Homo sapiens) (UniProt Q13535); experiment: Inhibition of human ATR in HL-60 cells lysate assessed as reduction of labeling of acyl-phosphate ATP probe at 100 nM
[2] = target: Serine/threonine-protein kinase/endoribonuclease IRE1 (Homo sapiens) (UniProt O75460); experiment: Inhibition of human IRE1 in HL-60 cells lysate assessed as reduction of labeling of acyl-phosphate ATP probe at 100 nM
Sequence of Serine/threonine-protein kinase/endoribonuclease IRE1 (Homo sapiens) (O75460 19-977 limits assumed): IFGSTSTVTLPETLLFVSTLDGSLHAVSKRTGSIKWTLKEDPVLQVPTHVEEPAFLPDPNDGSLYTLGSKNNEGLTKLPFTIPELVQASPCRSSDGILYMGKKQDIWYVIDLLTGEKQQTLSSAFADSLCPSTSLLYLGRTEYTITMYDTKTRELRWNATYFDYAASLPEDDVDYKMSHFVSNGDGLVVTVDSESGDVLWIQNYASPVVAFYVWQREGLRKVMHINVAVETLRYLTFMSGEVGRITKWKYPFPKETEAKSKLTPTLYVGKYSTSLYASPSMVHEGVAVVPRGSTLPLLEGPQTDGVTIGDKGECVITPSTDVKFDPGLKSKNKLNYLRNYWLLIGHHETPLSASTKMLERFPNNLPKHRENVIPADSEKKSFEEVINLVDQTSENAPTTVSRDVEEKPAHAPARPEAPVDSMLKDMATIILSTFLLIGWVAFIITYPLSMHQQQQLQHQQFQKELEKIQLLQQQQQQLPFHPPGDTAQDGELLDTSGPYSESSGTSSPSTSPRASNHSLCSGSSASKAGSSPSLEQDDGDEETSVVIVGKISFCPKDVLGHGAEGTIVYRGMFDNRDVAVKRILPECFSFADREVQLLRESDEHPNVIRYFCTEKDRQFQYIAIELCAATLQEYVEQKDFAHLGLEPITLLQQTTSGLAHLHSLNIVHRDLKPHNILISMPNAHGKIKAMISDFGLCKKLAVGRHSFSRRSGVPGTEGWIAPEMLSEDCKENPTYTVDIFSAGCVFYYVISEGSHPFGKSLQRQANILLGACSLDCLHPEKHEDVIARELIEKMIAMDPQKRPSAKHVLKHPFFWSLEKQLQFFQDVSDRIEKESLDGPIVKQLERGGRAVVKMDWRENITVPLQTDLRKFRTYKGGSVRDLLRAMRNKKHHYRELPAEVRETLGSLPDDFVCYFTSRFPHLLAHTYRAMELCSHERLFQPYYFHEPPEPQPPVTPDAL

[3] = target: Serine/threonine-protein kinase Nek6 (Homo sapiens) (UniProt Q9HC98); experiment: Inhibition of human NEK6 in HL-60 cells lysate assessed as reduction of labeling of acyl-phosphate ATP probe at 100 nM
Sequence of Serine/threonine-protein kinase Nek6 (Homo sapiens) (Q9HC98 whole entry): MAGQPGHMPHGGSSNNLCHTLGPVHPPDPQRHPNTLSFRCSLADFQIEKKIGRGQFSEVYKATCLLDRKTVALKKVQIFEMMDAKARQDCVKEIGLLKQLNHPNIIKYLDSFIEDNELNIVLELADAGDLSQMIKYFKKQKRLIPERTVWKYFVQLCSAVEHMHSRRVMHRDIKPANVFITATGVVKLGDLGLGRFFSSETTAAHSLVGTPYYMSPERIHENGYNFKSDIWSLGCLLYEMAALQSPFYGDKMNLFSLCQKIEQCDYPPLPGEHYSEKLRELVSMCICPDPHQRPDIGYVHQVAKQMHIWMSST

[4] = target: T1, Serine/threonine-protein kinase ULK3 (Homo sapiens) (UniProt Q6PHR2); experiment: Inhibition of human ULK3 in HL-60 cells lysate assessed as reduction of labeling of acyl-phosphate ATP probe at 100 nM
T1 sequence (whole entry): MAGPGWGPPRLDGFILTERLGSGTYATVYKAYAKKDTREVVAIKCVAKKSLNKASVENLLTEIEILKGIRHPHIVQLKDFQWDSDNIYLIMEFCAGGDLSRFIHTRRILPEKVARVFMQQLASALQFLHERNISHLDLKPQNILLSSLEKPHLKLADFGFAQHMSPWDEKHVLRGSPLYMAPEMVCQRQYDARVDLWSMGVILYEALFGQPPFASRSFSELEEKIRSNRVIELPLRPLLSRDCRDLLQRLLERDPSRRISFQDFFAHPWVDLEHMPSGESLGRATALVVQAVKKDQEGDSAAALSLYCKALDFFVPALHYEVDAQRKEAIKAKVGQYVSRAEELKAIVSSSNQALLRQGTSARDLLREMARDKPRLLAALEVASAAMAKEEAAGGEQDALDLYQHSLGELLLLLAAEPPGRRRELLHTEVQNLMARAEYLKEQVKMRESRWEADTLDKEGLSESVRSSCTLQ

[5] = target: Wee1-like protein kinase (Homo sapiens) (UniProt P30291); experiment: Inhibition of human Wee1 in HL-60 cells lysate assessed as reduction of labeling of acyl-phosphate ATP probe at 100 nM
Sequence of Wee1-like protein kinase (Homo sapiens) (P30291 whole entry, looked up): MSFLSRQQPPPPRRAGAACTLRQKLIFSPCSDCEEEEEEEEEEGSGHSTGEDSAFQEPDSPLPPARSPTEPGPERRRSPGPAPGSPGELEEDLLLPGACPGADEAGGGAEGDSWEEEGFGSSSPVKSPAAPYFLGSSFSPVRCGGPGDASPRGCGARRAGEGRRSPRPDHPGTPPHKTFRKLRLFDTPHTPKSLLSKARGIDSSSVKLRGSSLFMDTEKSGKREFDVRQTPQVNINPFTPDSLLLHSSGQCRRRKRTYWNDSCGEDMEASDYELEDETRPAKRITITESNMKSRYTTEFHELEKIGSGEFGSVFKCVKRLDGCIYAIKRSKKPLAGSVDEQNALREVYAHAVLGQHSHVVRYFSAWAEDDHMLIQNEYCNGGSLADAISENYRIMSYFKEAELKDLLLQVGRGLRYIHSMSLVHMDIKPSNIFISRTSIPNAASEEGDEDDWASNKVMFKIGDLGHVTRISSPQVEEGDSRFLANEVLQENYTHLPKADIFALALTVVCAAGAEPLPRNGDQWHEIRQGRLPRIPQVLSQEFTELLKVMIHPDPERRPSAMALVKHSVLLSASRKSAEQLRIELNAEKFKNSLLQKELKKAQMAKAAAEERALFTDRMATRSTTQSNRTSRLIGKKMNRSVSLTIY

[6] = target: Mitogen-activated protein kinase kinase kinase kinase 1 (Homo sapiens) (UniProt Q92918); experiment: Inhibition of human HPK1 in HL-60 cells lysate assessed as reduction of labeling of acyl-phosphate ATP probe at 100 nM
Sequence of Mitogen-activated protein kinase kinase kinase kinase 1 (Homo sapiens) (Q92918 whole entry, looked up): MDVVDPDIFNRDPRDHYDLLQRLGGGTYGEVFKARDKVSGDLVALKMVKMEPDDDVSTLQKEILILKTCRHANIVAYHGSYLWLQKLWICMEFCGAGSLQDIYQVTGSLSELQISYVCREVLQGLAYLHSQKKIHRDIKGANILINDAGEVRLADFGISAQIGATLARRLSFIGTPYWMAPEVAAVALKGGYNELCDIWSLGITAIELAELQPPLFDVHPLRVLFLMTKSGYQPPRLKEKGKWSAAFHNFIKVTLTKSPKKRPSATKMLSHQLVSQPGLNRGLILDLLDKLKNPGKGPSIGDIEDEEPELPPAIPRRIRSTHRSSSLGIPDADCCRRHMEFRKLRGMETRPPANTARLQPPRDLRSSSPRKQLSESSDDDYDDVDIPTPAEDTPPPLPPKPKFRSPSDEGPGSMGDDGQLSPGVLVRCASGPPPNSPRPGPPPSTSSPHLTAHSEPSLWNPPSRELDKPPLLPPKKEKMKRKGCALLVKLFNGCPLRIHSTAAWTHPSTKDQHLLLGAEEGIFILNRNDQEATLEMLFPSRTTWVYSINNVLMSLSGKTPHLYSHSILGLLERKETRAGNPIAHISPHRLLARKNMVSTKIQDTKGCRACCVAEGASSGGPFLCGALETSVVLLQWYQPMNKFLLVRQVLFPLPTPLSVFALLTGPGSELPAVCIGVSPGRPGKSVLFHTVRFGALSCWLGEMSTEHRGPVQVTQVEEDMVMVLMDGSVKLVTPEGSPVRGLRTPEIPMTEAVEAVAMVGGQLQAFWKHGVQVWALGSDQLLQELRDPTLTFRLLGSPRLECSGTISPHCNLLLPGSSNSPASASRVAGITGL

[7] = target: Dual specificity mitogen-activated protein kinase kinase 1 (Homo sapiens) (UniProt Q02750); experiment: Inhibition of human MAP2K1 in HL-60 cells lysate assessed as reduction of labeling of acyl-phosphate ATP probe at 100 nM
[8] = target: Dual specificity mitogen-activated protein kinase kinase 2 (Homo sapiens) (UniProt P36507); experiment: Inhibition of human MAP2K2 in HL-60 cells lysate assessed as reduction of labeling of acyl-phosphate ATP probe at 100 nM
Sequence of Dual specificity mitogen-activated protein kinase kinase 2 (Homo sapiens) (P36507 whole entry): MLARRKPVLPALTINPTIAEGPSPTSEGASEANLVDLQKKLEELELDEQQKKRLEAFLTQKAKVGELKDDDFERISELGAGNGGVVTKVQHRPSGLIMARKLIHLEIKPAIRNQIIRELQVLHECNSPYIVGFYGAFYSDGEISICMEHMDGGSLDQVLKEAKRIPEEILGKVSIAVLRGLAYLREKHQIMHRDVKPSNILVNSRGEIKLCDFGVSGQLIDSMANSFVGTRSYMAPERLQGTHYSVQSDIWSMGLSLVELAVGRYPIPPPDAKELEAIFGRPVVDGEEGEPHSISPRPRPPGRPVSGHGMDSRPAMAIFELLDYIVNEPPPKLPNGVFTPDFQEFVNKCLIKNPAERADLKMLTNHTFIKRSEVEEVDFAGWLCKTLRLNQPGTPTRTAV

[9] = target: T2, Dual specificity mitogen-activated protein kinase kinase 3 (Homo sapiens) (UniProt P46734); experiment: Inhibition of human MAP2K3 in HL-60 cells lysate assessed as reduction of labeling of acyl-phosphate ATP probe at 100 nM
T2 sequence (whole entry): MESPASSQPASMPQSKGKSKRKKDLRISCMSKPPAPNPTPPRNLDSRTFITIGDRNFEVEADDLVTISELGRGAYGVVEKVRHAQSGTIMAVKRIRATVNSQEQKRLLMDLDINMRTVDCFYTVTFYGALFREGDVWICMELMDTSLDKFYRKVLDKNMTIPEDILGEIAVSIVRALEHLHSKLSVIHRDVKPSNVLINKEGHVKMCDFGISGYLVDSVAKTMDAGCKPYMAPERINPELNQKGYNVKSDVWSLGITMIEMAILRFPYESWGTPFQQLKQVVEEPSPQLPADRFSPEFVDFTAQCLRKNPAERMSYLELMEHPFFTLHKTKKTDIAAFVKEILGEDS

[10] = target: T3, Dual specificity mitogen-activated protein kinase kinase 4 (Homo sapiens) (UniProt P45985); experiment: Inhibition of human MAP2K4 in HL-60 cells lysate assessed as reduction of labeling of acyl-phosphate ATP probe at 100 nM
T3 sequence (whole entry): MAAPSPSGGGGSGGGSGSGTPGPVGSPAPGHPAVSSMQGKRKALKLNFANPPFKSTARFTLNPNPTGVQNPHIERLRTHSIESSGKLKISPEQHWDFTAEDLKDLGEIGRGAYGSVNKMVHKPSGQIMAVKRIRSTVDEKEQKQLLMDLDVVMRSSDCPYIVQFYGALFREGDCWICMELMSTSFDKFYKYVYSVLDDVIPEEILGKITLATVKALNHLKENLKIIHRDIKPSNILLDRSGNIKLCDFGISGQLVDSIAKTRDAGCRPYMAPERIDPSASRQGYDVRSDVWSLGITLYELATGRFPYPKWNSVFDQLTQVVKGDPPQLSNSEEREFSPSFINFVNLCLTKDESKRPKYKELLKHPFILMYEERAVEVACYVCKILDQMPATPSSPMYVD

[11] = target: T4, STE20-related kinase adapter protein alpha (Homo sapiens) (UniProt Q7RTN6); experiment: Inhibition of human STLK5 in HL-60 cells lysate assessed as reduction of labeling of acyl-phosphate ATP probe at 100 nM
T4 sequence (whole entry): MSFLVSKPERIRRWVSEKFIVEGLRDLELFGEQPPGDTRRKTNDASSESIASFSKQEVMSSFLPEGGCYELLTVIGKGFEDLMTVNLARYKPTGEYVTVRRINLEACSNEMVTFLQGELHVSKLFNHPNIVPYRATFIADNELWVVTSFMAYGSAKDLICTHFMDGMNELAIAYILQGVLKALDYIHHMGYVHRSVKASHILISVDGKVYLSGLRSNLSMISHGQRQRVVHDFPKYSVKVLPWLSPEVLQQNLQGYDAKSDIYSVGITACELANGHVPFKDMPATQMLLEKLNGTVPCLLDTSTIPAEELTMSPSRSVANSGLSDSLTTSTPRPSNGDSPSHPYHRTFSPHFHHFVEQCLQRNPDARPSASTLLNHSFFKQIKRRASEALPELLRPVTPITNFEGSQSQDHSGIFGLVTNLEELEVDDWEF

[12] = target: Serine/threonine-protein kinase B-raf (Homo sapiens) (UniProt P15056); experiment: Inhibition of human BRAF in HL-60 cells lysate assessed as reduction of labeling of acyl-phosphate ATP probe at 100 nM
Sequence of Serine/threonine-protein kinase B-raf (Homo sapiens) (P15056 whole entry): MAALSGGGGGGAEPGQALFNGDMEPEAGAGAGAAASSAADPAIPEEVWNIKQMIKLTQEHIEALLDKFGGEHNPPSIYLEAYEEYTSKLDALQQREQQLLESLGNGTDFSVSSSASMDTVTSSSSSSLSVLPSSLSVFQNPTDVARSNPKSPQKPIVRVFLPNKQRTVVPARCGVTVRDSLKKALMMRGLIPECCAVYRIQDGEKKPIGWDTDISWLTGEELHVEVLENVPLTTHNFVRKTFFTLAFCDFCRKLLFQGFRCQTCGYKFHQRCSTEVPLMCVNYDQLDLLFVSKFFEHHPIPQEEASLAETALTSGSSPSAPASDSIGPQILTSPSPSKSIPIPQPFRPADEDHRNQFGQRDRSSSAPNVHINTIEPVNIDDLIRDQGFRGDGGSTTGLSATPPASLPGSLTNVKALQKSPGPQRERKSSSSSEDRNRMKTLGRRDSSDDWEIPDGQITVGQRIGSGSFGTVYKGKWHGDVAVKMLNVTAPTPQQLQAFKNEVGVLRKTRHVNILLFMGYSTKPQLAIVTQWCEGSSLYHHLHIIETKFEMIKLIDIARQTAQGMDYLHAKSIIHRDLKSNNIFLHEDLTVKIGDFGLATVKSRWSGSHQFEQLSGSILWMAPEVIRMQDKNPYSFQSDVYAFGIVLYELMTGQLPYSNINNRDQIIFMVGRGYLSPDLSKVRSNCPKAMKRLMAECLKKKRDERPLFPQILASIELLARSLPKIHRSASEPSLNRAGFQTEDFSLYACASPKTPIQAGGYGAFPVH

[13] = target: Mitogen-activated protein kinase 7 (Homo sapiens) (UniProt Q13164); experiment: Inhibition of human Erk5 in HL-60 cells lysate assessed as reduction of labeling of acyl-phosphate ATP probe at 100 nM
Sequence of Mitogen-activated protein kinase 7 (Homo sapiens) (Q13164 2-816 limits assumed): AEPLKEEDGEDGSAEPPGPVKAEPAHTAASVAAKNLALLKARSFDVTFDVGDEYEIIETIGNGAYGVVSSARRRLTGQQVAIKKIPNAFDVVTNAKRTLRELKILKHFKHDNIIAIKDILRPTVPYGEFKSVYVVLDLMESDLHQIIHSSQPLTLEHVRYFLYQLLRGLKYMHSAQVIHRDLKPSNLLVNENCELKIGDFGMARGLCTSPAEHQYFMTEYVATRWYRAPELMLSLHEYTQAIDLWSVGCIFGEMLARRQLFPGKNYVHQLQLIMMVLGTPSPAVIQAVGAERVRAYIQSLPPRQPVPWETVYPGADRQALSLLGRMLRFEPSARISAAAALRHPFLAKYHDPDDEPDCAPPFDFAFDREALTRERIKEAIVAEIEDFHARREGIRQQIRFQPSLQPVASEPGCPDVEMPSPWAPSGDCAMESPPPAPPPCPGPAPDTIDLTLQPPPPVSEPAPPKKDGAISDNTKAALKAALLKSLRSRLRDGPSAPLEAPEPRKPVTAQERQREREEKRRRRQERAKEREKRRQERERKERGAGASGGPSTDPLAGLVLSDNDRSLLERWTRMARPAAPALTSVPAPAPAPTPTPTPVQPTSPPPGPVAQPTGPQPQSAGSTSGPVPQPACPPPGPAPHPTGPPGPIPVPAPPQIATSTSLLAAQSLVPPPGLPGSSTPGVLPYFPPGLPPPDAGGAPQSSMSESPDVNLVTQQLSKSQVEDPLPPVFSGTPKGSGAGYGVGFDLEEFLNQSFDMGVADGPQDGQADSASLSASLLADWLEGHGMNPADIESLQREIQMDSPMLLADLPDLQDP

Measured: inhibition

C[C@H]1COc2c(NCCCn3cccn3)c(F)c(N)c3c(=O)c(C#N)cn1c23
< 35%: all assays above

C[C@H]1COc2c(NCCCc3ccccn3)c(F)c(N)c3c(=O)c(C(=O)O)cn1c23
< 35%: all assays above

C[C@H]1COc2c(NCCCn3cccn3)c(F)c(N)c3c(=O)c(C(=O)O)cn1c23
< 35%: all assays above

C[C@H]1COc2c(NCCCc3ccccn3)c(F)c(N)c3c(=O)c(C#N)cn1c23
< 35%: all assays above
